Tests used:
ΔF508-CFTR [1] = biological target: T1, ΔF508-CFTR (Homo sapiens, UniProt P13569, DEL508-508); assay: CFTR cell surface levels using HRP-tagged ΔF508-CFTR expressing CFBE cells, in the presence of a co-corrector; assay type: cell-based; conditions: HRP-tagged ΔF508-CFTR CFBE cells, in the presence of 3 μM co-corrector; for EC50: read-out: EC50
T1 construct: host or cells: CFBE41o-, doxycycline-inducible
Outline: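 Chemiluminescent read-out of surface HRP (15 min, dark) after PBS washes. Activity is normalized as 100×(sample−DMSO)/(3 μM co-corrector alone−DMSO).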

ΔF508-CFTR [2] = biological target: T1, ΔF508-CFTR; assay: CFTR cell surface levels using HRP-tagged ΔF508-CFTR expressing CFBE cells, intrinsic corrector capacity; assay type: cell-based; design: % Activation: concentration or dose not given beside the values; conditions: HRP-tagged ΔF508-CFTR expressing CFBE41o- cells, compound alone (intrinsic corrector capacity), 20 hours at 33° C.; for EC50: read-out: EC50
Outline: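 Surface ΔF508-CFTR was measured as HRP chemiluminescence from an extracellular-loop-4 tag, expressed as percent activity between DMSO and a […] corrector control.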

T1 sequence (P13569 with tags, fused parts or gaps DEL508-508): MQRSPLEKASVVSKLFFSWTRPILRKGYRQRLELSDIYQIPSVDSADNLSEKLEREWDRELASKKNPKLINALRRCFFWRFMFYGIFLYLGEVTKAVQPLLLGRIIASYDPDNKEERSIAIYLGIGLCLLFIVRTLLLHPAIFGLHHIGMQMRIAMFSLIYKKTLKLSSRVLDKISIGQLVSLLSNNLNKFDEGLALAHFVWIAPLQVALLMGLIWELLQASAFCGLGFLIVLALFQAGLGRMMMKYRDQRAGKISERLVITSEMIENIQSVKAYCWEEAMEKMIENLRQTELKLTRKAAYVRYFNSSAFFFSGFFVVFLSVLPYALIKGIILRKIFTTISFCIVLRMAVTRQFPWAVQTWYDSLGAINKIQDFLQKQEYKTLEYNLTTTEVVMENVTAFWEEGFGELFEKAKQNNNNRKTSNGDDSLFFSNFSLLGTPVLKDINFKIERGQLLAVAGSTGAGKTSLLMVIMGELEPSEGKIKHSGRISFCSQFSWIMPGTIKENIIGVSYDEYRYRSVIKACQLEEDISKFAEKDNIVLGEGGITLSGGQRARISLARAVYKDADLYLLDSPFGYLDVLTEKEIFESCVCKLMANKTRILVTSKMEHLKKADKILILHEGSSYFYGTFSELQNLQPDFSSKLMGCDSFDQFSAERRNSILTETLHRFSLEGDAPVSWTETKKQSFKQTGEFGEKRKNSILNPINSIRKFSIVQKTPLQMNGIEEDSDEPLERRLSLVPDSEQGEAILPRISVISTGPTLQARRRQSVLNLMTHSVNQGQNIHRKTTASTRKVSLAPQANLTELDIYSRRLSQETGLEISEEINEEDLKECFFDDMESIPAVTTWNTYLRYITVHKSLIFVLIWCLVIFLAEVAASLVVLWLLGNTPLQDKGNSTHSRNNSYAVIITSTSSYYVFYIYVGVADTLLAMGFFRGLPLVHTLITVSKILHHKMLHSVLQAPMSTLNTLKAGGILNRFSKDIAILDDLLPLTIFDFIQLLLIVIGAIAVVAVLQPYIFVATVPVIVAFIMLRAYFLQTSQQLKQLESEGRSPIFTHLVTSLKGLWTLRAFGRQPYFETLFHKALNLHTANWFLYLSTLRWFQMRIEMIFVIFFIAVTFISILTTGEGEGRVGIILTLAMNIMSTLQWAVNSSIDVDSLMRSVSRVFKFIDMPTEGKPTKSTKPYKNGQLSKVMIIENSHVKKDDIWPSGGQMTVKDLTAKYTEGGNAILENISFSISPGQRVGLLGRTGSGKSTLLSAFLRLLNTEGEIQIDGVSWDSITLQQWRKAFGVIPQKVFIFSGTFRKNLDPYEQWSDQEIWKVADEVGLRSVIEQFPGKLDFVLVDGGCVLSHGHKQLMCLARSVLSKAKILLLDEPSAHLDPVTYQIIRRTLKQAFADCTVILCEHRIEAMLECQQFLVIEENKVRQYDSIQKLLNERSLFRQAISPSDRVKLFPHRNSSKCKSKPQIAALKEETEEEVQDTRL

SMILES	% Activation (ΔF508-CFTR [1])	EC50 (ΔF508-CFTR [1])	% Activation (ΔF508-CFTR [2])	EC50 (ΔF508-CFTR [2])
CCS(=O)(=O)NC(=O)c1cc(-c2ccc(N3CCOCC3)cc2)c2c(C(C)C)nn(C3CCCOC3)c2n1 (stereo not drawn) [Compound 40, N-(ethanesulfonyl)-4-[4-(morpholin-4-yl)phenyl]-1-(oxan-3-yl)-3-(propan-2-yl)-1H-pyrazolo[3,4-b]pyridine-6-carboxamide]	373.43%	0.423 µM	147.1%	0.451 µM
Cc1nn(-c2ccccc2)c2nc(C(=O)NS(C)(=O)=O)cc(-c3ccc(N4CC(N(C)C)C4)cc3)c12 [Compound 41, 4-{4-[3-(dimethylamino)azetidin-1-yl]phenyl}-N-(methanesulfonyl)-3-methyl-1-phenyl-1H-pyrazolo[3,4-b]pyridine-6-carboxamide]	253.3%	1.14 µM	52.497%	0.817 µM
CCS(=O)(=O)NC(=O)c1cc(-c2ccc(N3CC(N(C)C)C3)cc2)c2c(C)nn(-c3ccccc3)c2n1 [Compound 42, 4-{4-[3-(dimethylamino)azetidin-1-yl]phenyl}-N-(ethanesulfonyl)-3-methyl-1-phenyl-1H-pyrazolo[3,4-b]pyridine-6-carboxamide]	226.3%	0.378 µM	45.225%	2.12 µM
CC(C)c1nn(-c2cccc(N3CC(C)(C)C3)c2)c2nc(C(=O)NS(C)(=O)=O)cc(-c3ccc(N4CCOCC4)cc3)c12 [Compound 43, 1-[3-(3,3-dimethylazetidin-1-yl)phenyl]-N-(methanesulfonyl)-4-[4-(morpholin-4-yl)phenyl]-3-(propan-2-yl)-1H-pyrazolo[3,4-b]pyridine-6-carboxamide]	627%	0.289 µM	379.67%	0.299 µM
CC(C)c1nn(C2CCCCC2)c2nc(C(=O)NS(C)(=O)=O)cc(-c3ccc(N4CCOCC4)nc3)c12 [Compound 44, 1-cyclohexyl-N-(methanesulfonyl)-4-[6-(morpholin-4-yl)pyridin-3-yl]-3-(propan-2-yl)-1H-pyrazolo[3,4-b]pyridine-6-carboxamide]	412.63%	0.276 µM	203.87%	0.404 µM
CCS(=O)(=O)NC(=O)c1cc(-c2ccc(N3CCOCC3)cc2)c2c(C(C)C)nn(C3CCCCC3)c2n1 [Compound 45, 1-cyclohexyl-N-(ethanesulfonyl)-4-[4-(morpholin-4-yl)phenyl]-3-(propan-2-yl)-1H-pyrazolo[3,4-b]pyridine-6-carboxamide]	438.4%	0.203 µM	210.97%	0.327 µM
CC(C)c1nn(-c2cccc(N3CCC(F)C3)c2)c2nc(C(=O)NS(C)(=O)=O)cc(-c3ccc(N4CCOCC4)cc3)c12 (stereo not drawn) [Compound 46, 1-[3-(3-fluoropyrrolidin-1-yl)phenyl]-N-(methanesulfonyl)-4-[4-(morpholin-4-yl)phenyl]-3-(propan-2-yl)-1H-pyrazolo[3,4-b]pyridine-6-carboxamide]	643.27%	0.446 µM	457.3%	0.706 µM
Cc1nn(C2CCCCC2)c2nc(C(=O)NS(C)(=O)=O)cc(-c3ccc(N4CCOCC4)nc3)c12 [Compound 47, 1-cyclohexyl-N-(methanesulfonyl)-3-methyl-4-[6-(morpholin-4-yl)pyridin-3-yl]-1H-pyrazolo[3,4-b]pyridine-6-carboxamide]	408.77%	1.6 µM	169.73%	1.86 µM
CCS(=O)(=O)NC(=O)c1cc(-c2ccc(N3CCOCC3)nc2)c2c(C)nn(C3CCCCC3)c2n1 [Compound 48, 1-cyclohexyl-N-(ethanesulfonyl)-3-methyl-4-[6-(morpholin-4-yl)pyridin-3-yl]-1H-pyrazolo[3,4-b]pyridine-6-carboxamide]	417.8%	1.15 µM	160.9%	1.2 µM
Cc1nn(C2CCCCC2)c2nc(C(=O)NS(C)(=O)=O)cc(-c3cnc(N(C)C)nc3)c12 [Compound 49, 1-cyclohexyl-4-[2-(dimethylamino)pyrimidin-5-yl]-N-(methanesulfonyl)-3-methyl-1H-pyrazolo[3,4-b]pyridine-6-carboxamide]	338%	2 µM	115.3%	2.57 µM
CCS(=O)(=O)NC(=O)c1cc(-c2cnc(N(C)C)nc2)c2c(C)nn(C3CCCCC3)c2n1 [Compound 50, 1-cyclohexyl-4-[2-(dimethylamino)pyrimidin-5-yl]-N-(ethanesulfonyl)-3-methyl-1H-pyrazolo[3,4-b]pyridine-6-carboxamide]	300%	1.08 µM	109.8%	1.68 µM
CC(C)c1nn(C2CCCCC2)c2nc(C(=O)NS(C)(=O)=O)cc(-c3ccc(N(C)C4CCOCC4)nc3)c12 [Compound 51, 1-cyclohexyl-N-(methanesulfonyl)-4-{6-[methyl(oxan-4-yl)amino]pyridin-3-yl}-3-(propan-2-yl)-1H-pyrazolo[3,4-b]pyridine-6-carboxamide]	420.67%	0.312 µM	172.4%	0.457 µM
CCS(=O)(=O)NC(=O)c1cc(-c2cnc(N(C)C)nc2)c2c(C3CN(C(=O)OC)C3)nn(C3CCCCC3)c2n1 [Compound 52, methyl 3-{1-cyclohexyl-4-[2-(dimethylamino)pyrimidin-5-yl]-6-[(ethanesulfonyl)carbamoyl]-1H-pyrazolo[3,4-b]pyridin-3-yl}azetidine-1-carboxylate]	257.85%	0.992 µM	75.755%	1.15 µM
CC(C)c1nn(-c2cccc(N(C)C)c2)c2nc(C(=O)NS(C)(=O)=O)cc(-c3ccc(N4CCOCC4)nc3)c12 [Compound 53, 1-[3-(dimethylamino)phenyl]-N-(methanesulfonyl)-4-[6-(morpholin-4-yl)pyridin-3-yl]-3-(propan-2-yl)-1H-pyrazolo[3,4-b]pyridine-6-carboxamide]	572.78%	0.647 µM	376.8%	0.671 µM
CCS(=O)(=O)NC(=O)c1cc(-c2ccc(N3CCOCC3)nc2)c2c(C(C)C)nn(-c3cccc(N(C)C)c3)c2n1 [Compound 54, 1-[3-(dimethylamino)phenyl]-N-(ethanesulfonyl)-4-[6-(morpholin-4-yl)pyridin-3-yl]-3-(propan-2-yl)-1H-pyrazolo[3,4-b]pyridine-6-carboxamide]	593.12%	0.464 µM	386.92%	0.78 µM
CC(C)c1nn(C2CCCC2)c2nc(C(=O)NS(C)(=O)=O)cc(-c3ccc(N(C)C)nc3)c12 [Compound 55, 1-cyclopentyl-4-[6-(dimethylamino)pyridin-3-yl]-N-(methanesulfonyl)-3-(propan-2-yl)-1H-pyrazolo[3,4-b]pyridine-6-carboxamide]	341.65%	1.05 µM	126.75%	1.22 µM
CCS(=O)(=O)NC(=O)c1cc(-c2ccc(N(C)C)nc2)c2c(C(C)C)nn(C3CCCC3)c2n1 [Compound 56, 1-cyclopentyl-4-[6-(dimethylamino)pyridin-3-yl]-N-(ethanesulfonyl)-3-(propan-2-yl)-1H-pyrazolo[3,4-b]pyridine-6-carboxamide]	336.75%	0.838 µM	122.1%	1.18 µM
Cc1nn(-c2cccc(C(F)(F)F)c2)c2nc(C(=O)NS(C)(=O)=O)cc(-c3ccc(N4CCOCC4)nc3)c12 [Compound 57, N-(methanesulfonyl)-3-methyl-4-[6-(morpholin-4-yl)pyridin-3-yl]-1-[3-(trifluoromethyl)phenyl]-1H-pyrazolo[3,4-b]pyridine-6-carboxamide]	440%	0.657 µM	219.65%	1.02 µM
CCS(=O)(=O)NC(=O)c1cc(-c2ccc(N3CCOCC3)nc2)c2c(C)nn(-c3cccc(C(F)(F)F)c3)c2n1 [Compound 58, N-(ethanesulfonyl)-3-methyl-4-[6-(morpholin-4-yl)pyridin-3-yl]-1-[3-(trifluoromethyl)phenyl]-1H-pyrazolo[3,4-b]pyridine-6-carboxamide]	352.5%	0.422 µM	196.2%	0.756 µM
CC(C)c1nn(-c2cccc(N(C)C)c2)c2nc(C(=O)NS(C)(=O)=O)cc(-c3cnc(N4CCOCC4)nc3)c12 [Compound 59, 1-[3-(dimethylamino)phenyl]-N-(methanesulfonyl)-4-[2-(morpholin-4-yl)pyrimidin-5-yl]-3-(propan-2-yl)-1H-pyrazolo[3,4-b]pyridine-6-carboxamide]	534.8%	0.482 µM	317.3%	0.777 µM
Cc1nn(-c2ccc(F)cc2F)c2nc(C(=O)NS(C)(=O)=O)cc(-c3ccc(N4CCOCC4)nc3)c12 [Compound 60, 1-(2,4-difluorophenyl)-N-(methanesulfonyl)-3-methyl-4-[6-(morpholin-4-yl)pyridin-3-yl]-1H-pyrazolo[3,4-b]pyridine-6-carboxamide]	323.63%	0.351 µM	160.43%	0.394 µM

Source: patent US10259810B2, “N-sulfonylated pyrazolo[3,4-b]pyridin-6-carboxamides and method of use” (AbbVie S.à.r.l., priority 2015, dated 2019)
